Legend:
[1] = molecular target: Cyclin-dependent kinase-like 2 (Homo sapiens) (UniProt Q92772); experiment: CDKL2(h) Kinase panel; conditions: Compound concentration 1.0 uM, tested as the 2H-labelled form
[2] = molecular target: Epidermal growth factor receptor (Homo sapiens) (UniProt P00533); experiment: EGFR(h) Kinase panel; conditions: Compound concentration 1.0 uM, tested as the 2H-labelled form
[3] = molecular target: 5-hydroxytryptamine receptor 3A (Homo sapiens) (UniProt P46098); conditions: Compound concentration 10.0 uM, tested as the 2H-labelled form
[4] = molecular target: Casein kinase I isoform gamma-2 (Homo sapiens) (UniProt P78368); experiment: CK1gamma2(h) Kinase panel; conditions: Compound concentration 1.0 uM, tested as the 2H-labelled form
[5] = molecular target: MAP/microtubule affinity-regulating kinase 3 (Homo sapiens) (UniProt P27448); experiment: MARK3(h) Kinase panel; conditions: Compound concentration 1.0 uM, tested as the 2H-labelled form
[6] = molecular target: Leukocyte tyrosine kinase receptor (Homo sapiens) (UniProt P29376); experiment: LTK(h) Kinase panel; conditions: Compound concentration 1.0 uM, tested as the 2H-labelled form
[7] = molecular target: Serine-protein kinase ATM (Homo sapiens) (UniProt Q13315); experiment: ATM(h) Kinase panel; conditions: Compound concentration 1.0 uM, tested as the 2H-labelled form
Homo sapiens = species: Homo sapiens; experiment: CK2(h) Kinase panel; conditions: Compound concentration 1.0 uM, tested as the 2H-labelled form
[8] = molecular target: SRSF protein kinase 2 (Homo sapiens) (UniProt P78362); experiment: SRPK2(h) Kinase panel; conditions: Compound concentration 1.0 uM, tested as the 2H-labelled form
[9] = molecular target: Serine/threonine-protein kinase Nek4 (Homo sapiens) (UniProt P51957); experiment: NEK4(h) Kinase panel; conditions: Compound concentration 1.0 uM, tested as the 2H-labelled form
[10] = molecular target: Dual specificity mitogen-activated protein kinase kinase 3 (Homo sapiens) (UniProt P46734); experiment: MKK3(h) Kinase panel; conditions: Compound concentration 1.0 uM, tested as the 2H-labelled form
[11] = molecular target: TGF-beta receptor type-1 (Homo sapiens) (UniProt P36897); experiment: TGFBR1(h) Kinase panel; conditions: Compound concentration 1.0 uM, tested as the 2H-labelled form
[12] = molecular target: Serine/threonine-protein kinase 24 (Homo sapiens) (UniProt Q9Y6E0); experiment: MST3(h) Kinase panel; conditions: Compound concentration 1.0 uM, tested as the 2H-labelled form
[13] = molecular target: Protein kinase C epsilon type (Homo sapiens) (UniProt Q02156); experiment: PKCepsilon (h) Kinase panel; conditions: Compound concentration 1.0 uM, tested as the 2H-labelled form
[14] = molecular target: Death-associated protein kinase 1 (Homo sapiens) (UniProt P53355); experiment: DAPK1(h) Kinase panel; conditions: Compound concentration 1.0 uM, tested as the 2H-labelled form
[15] = molecular target: Tyrosine-protein kinase Lyn (Homo sapiens) (UniProt P07948); experiment: Lyn(h) Kinase panel; conditions: Compound concentration 1.0 uM, tested as the 2H-labelled form
[16] = molecular target: G protein-coupled receptor kinase 6 (Homo sapiens) (UniProt P43250); experiment: GRK6(h) Kinase panel; conditions: Compound concentration 1.0 uM, tested as the 2H-labelled form
[17] = molecular target: 5-hydroxytryptamine receptor 2C (Homo sapiens) (UniProt P28335); conditions: Compound concentration 10.0 uM, tested as the 2H-labelled form
[18] = molecular target: Casein kinase II subunit alpha' (Homo sapiens) (UniProt P19784); experiment: CK2alpha2(h) Kinase panel; conditions: Compound concentration 1.0 uM, tested as the 2H-labelled form
[19] = molecular target: Cyclin-dependent kinase 18 (Homo sapiens) (UniProt Q07002); experiment: CDK18/cyclinY(h) Kinase panel; conditions: Compound concentration 1.0 uM, tested as the 2H-labelled form
[20] = molecular target: Tyrosine-protein kinase JAK1 (Homo sapiens) (UniProt P23458); experiment: JAK1(h) Kinase panel; conditions: Compound concentration 1.0 uM, tested as the 2H-labelled form
[21] = molecular target: BDNF/NT-3 growth factors receptor (Homo sapiens) (UniProt Q16620); experiment: TrkB(h) Kinase panel; conditions: Compound concentration 1.0 uM, tested as the 2H-labelled form
[22] = molecular target: Alpha-1B adrenergic receptor (Homo sapiens) (UniProt P35368); conditions: Compound concentration 10.0 uM, tested as the 2H-labelled form
[23] = molecular target: 5-hydroxytryptamine receptor 1B (Homo sapiens) (UniProt P28222); conditions: Compound concentration 10.0 uM, tested as the 2H-labelled form
[24] = molecular target: Serine/threonine-protein kinase N2 (Homo sapiens) (UniProt Q16513); experiment: PRK2(h) Kinase panel; conditions: Compound concentration 1.0 uM, tested as the 2H-labelled form
[25] = molecular target: Receptor-interacting serine/threonine-protein kinase 1 (Homo sapiens) (UniProt Q13546); experiment: RIPK1(h) Kinase panel; conditions: Compound concentration 1.0 uM, tested as the 2H-labelled form
[26] = molecular target: Serine/threonine-protein kinase Chk1 (Homo sapiens) (UniProt O14757); experiment: CHK1(h) Kinase panel; conditions: Compound concentration 1.0 uM, tested as the 2H-labelled form
[27] = molecular target: Cyclin-dependent kinase 14 (Homo sapiens) (UniProt O94921); experiment: CDK14/cyclinY(h) Kinase panel; conditions: Compound concentration 1.0 uM, tested as the 2H-labelled form
[28] = molecular target: Ephrin type-B receptor 4 (Homo sapiens) (UniProt P54760); experiment: EphB4(h) Kinase panel; conditions: Compound concentration 1.0 uM, tested as the 2H-labelled form
[29] = molecular target: Tyrosine-protein kinase Fes/Fps (Homo sapiens) (UniProt P07332); experiment: Fes(h) Kinase panel; conditions: Compound concentration 1.0 uM, tested as the 2H-labelled form
[30] = molecular target: Tribbles homolog 2 (Homo sapiens) (UniProt Q92519); experiment: TRB2(h) Kinase panel; conditions: Compound concentration 1.0 uM, tested as the 2H-labelled form
[31] = molecular target: Histamine H3 receptor (Homo sapiens) (UniProt Q9Y5N1); conditions: Compound concentration 10.0 uM, tested as the 2H-labelled form
[32] = molecular target: Tyrosine-protein kinase SYK (Homo sapiens) (UniProt P43405); experiment: Syk(h) Kinase panel; conditions: Compound concentration 1.0 uM, tested as the 2H-labelled form
[33] = molecular target: cGMP-dependent protein kinase 1 (Homo sapiens) (UniProt Q13976); experiment: PKG1beta (h) Kinase panel; conditions: Compound concentration 1.0 uM, tested as the 2H-labelled form
[34] = molecular target: Fibroblast growth factor receptor 1 (Homo sapiens) (UniProt P11362); experiment: FGFR1(h) Kinase panel; conditions: Compound concentration 1.0 uM, tested as the 2H-labelled form
[35] = molecular target: Tyrosine-protein kinase ITK/TSK (Homo sapiens) (UniProt Q08881); experiment: Itk(h) Kinase panel; conditions: Compound concentration 1.0 uM, tested as the 2H-labelled form
[36] = molecular target: Mitogen-activated protein kinase kinase kinase 11 (Homo sapiens) (UniProt Q16584); experiment: MLK3(h) Kinase panel; conditions: Compound concentration 1.0 uM, tested as the 2H-labelled form
[37] = molecular target: Mitogen-activated protein kinase 9 (Homo sapiens) (UniProt P45984); experiment: JNK2alpha2(h) Kinase panel; conditions: Compound concentration 1.0 uM, tested as the 2H-labelled form
[38] = molecular target: Non-receptor tyrosine-protein kinase TYK2 (Homo sapiens) (UniProt P29597); experiment: TYK2(h) Kinase panel; conditions: Compound concentration 1.0 uM, tested as the 2H-labelled form
[39] = molecular target: Serine/threonine-protein kinase PAK 4 (Homo sapiens) (UniProt O96013); experiment: PAK4(h) Kinase panel; conditions: Compound concentration 1.0 uM, tested as the 2H-labelled form
[40] = molecular target: Protein-tyrosine kinase 2-beta (Homo sapiens) (UniProt Q14289); experiment: Pyk2(h) Kinase panel; conditions: Compound concentration 1.0 uM, tested as the 2H-labelled form
[41] = molecular target: Alpha-1D adrenergic receptor (Homo sapiens) (UniProt P25100); conditions: Compound concentration 10.0 uM, tested as the 2H-labelled form
[42] = molecular target: Sodium-dependent serotonin transporter (Homo sapiens) (UniProt P31645); conditions: Compound concentration 10.0 uM, tested as the 2H-labelled form
[43] = molecular target: Serine/threonine-protein kinase Nek7 (Homo sapiens) (UniProt Q8TDX7); experiment: NEK7(h) Kinase panel; conditions: Compound concentration 1.0 uM, tested as the 2H-labelled form
[44] = molecular target: Alpha-2A adrenergic receptor (Homo sapiens) (UniProt P08913); conditions: Compound concentration 10.0 uM, tested as the 2H-labelled form
[45] = molecular target: Dual specificity protein kinase TTK (Homo sapiens) (UniProt P33981); experiment: TTK(h) Kinase panel; conditions: Compound concentration 1.0 uM, tested as the 2H-labelled form
[46] = molecular target: Tyrosine-protein kinase receptor UFO (Homo sapiens) (UniProt P30530); experiment: Axl(h) Kinase panel; conditions: Compound concentration 1.0 uM, tested as the 2H-labelled form
[47] = molecular target: Serine/threonine-protein kinase WNK1 (Homo sapiens) (UniProt Q9H4A3); experiment: WNK1(h) Kinase panel; conditions: Compound concentration 1.0 uM, tested as the 2H-labelled form
[48] = molecular target: Serine/threonine-protein kinase Nek2 (Homo sapiens) (UniProt P51955); experiment: NEK2(h) Kinase panel; conditions: Compound concentration 1.0 uM, tested as the 2H-labelled form
[49] = molecular target: BMP-2-inducible protein kinase (Homo sapiens) (UniProt Q9NSY1); experiment: BIKe(h) Kinase panel; conditions: Compound concentration 1.0 uM, tested as the 2H-labelled form
[50] = molecular target: Serine/threonine-protein kinase PLK1 (Homo sapiens) (UniProt P53350); experiment: Plk1(h) Kinase panel; conditions: Compound concentration 1.0 uM, tested as the 2H-labelled form
[51] = molecular target: Rhodopsin kinase GRK7 (Homo sapiens) (UniProt Q8WTQ7); experiment: GRK7(h) Kinase panel; conditions: Compound concentration 1.0 uM, tested as the 2H-labelled form
[52] = molecular target: 5-hydroxytryptamine receptor 1E (Homo sapiens) (UniProt P28566); conditions: Compound concentration 10.0 uM, tested as the 2H-labelled form

Chain of Serine/threonine-protein kinase N2 (Homo sapiens) (Q16513 whole entry, looked up): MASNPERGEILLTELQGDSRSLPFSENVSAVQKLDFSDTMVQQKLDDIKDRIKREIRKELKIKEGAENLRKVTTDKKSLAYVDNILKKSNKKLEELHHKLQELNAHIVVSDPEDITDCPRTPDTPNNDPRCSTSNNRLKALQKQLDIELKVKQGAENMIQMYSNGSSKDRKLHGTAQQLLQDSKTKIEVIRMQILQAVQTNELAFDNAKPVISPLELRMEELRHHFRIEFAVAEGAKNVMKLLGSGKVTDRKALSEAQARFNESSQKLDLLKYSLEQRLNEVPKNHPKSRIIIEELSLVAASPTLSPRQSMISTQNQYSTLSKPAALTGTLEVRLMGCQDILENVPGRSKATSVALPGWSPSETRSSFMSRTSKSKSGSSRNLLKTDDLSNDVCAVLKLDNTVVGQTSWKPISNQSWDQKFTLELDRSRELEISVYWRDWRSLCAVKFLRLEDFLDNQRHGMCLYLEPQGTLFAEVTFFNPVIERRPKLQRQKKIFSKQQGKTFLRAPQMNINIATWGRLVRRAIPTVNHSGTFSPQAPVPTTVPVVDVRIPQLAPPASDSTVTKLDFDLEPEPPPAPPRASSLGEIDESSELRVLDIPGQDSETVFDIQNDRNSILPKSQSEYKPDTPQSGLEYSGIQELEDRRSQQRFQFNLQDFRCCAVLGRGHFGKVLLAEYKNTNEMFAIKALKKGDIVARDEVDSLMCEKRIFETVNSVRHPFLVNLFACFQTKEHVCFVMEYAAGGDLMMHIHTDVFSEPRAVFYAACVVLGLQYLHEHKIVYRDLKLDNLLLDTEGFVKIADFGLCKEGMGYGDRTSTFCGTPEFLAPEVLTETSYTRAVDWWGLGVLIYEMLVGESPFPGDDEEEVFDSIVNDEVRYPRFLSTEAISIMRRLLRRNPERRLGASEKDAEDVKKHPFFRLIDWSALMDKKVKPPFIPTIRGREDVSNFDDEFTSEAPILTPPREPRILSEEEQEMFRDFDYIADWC
Chain of 5-hydroxytryptamine receptor 1B (Homo sapiens) (P28222 whole entry): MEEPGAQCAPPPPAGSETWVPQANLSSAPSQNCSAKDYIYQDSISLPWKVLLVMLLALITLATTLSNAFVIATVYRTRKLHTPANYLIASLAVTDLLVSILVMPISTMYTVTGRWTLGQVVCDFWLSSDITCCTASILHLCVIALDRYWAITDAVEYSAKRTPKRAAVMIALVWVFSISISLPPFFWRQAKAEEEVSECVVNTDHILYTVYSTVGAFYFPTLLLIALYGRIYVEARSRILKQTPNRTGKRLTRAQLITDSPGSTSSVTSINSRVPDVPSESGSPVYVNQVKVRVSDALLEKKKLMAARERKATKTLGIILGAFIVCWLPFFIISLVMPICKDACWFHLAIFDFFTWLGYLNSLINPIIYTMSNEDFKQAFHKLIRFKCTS
Chain of Dual specificity protein kinase TTK (Homo sapiens) (P33981 whole entry): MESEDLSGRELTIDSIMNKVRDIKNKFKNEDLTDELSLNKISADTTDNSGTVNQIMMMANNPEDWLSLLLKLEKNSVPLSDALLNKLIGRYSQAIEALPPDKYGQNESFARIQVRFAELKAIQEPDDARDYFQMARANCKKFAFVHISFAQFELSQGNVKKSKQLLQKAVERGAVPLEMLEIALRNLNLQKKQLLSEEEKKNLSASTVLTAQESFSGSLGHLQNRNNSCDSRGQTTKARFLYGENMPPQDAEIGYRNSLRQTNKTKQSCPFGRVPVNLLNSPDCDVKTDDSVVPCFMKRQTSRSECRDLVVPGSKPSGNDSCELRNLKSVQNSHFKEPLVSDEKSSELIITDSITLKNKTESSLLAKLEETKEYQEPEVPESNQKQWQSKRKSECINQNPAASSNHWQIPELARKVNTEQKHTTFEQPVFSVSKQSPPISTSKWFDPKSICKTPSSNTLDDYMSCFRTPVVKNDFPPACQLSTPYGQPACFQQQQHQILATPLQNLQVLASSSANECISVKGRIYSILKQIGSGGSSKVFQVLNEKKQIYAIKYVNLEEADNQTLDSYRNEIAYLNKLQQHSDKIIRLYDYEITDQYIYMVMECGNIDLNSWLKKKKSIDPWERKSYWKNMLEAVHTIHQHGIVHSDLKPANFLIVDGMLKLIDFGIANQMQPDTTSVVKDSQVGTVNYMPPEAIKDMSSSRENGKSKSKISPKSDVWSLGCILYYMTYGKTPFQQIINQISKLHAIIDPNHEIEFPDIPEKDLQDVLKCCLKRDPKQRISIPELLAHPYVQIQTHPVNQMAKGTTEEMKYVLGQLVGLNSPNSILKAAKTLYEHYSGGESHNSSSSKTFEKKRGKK
Chain of Rhodopsin kinase GRK7 (Homo sapiens) (Q8WTQ7 whole entry): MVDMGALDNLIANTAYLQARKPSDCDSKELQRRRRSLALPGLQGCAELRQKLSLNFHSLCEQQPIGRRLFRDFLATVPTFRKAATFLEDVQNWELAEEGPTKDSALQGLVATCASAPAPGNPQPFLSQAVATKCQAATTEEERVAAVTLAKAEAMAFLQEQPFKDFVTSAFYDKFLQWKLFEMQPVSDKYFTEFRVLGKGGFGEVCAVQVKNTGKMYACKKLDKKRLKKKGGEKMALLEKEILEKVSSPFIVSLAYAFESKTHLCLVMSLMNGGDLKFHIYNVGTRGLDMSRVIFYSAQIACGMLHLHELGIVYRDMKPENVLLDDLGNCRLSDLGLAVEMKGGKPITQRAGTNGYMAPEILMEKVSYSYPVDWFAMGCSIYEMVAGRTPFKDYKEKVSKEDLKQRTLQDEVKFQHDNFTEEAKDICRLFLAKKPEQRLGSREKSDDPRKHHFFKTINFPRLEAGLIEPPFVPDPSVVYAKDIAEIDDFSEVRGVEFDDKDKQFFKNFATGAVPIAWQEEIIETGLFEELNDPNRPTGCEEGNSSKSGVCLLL
Chain of G protein-coupled receptor kinase 6 (Homo sapiens) (P43250 whole entry, looked up): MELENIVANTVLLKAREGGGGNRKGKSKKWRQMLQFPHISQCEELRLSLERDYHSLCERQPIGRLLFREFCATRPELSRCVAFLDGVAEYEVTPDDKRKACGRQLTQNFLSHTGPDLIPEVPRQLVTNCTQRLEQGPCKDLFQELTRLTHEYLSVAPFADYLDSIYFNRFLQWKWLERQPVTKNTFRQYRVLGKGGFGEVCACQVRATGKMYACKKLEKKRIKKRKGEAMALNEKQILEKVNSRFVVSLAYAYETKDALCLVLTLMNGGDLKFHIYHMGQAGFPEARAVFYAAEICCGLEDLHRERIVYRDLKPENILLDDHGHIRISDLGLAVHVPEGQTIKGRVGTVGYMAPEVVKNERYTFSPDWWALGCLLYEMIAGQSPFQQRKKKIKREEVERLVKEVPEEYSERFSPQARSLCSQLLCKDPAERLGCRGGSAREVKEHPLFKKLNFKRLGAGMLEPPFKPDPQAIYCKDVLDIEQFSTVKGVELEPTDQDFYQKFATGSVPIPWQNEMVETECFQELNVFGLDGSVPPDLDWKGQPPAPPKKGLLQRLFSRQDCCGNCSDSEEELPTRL
Chain of Tyrosine-protein kinase JAK1 (Homo sapiens) (P23458 whole entry): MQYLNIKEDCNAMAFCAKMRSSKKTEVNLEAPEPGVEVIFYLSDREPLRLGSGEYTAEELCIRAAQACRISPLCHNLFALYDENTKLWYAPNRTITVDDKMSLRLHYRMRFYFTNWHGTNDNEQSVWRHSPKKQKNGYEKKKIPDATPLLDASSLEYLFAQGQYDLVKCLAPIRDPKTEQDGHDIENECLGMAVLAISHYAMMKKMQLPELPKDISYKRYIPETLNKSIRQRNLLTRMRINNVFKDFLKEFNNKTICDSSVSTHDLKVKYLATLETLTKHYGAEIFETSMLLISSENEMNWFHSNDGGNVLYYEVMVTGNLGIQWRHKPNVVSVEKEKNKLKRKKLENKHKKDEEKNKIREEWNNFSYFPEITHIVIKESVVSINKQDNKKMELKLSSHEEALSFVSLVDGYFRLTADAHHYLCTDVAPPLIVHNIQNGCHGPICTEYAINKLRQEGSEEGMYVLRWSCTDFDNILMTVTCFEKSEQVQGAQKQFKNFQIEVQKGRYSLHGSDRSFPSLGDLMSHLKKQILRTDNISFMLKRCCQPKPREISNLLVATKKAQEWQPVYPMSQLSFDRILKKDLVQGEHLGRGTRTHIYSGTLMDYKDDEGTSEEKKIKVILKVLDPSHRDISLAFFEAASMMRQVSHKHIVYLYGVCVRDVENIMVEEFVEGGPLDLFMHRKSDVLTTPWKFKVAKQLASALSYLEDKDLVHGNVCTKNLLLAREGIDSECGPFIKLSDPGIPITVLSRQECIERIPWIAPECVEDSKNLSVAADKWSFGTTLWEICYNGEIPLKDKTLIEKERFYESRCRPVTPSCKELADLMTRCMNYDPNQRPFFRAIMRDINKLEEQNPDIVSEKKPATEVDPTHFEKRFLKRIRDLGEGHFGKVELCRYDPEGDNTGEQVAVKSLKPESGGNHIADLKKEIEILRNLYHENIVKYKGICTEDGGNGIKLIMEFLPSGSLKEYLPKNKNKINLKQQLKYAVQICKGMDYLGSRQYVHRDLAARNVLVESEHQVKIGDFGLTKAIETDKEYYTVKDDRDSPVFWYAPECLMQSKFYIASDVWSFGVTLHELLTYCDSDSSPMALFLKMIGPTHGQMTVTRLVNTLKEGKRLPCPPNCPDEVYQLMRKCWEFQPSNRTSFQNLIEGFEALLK
Chain of Alpha-2A adrenergic receptor (Homo sapiens) (P08913 whole entry): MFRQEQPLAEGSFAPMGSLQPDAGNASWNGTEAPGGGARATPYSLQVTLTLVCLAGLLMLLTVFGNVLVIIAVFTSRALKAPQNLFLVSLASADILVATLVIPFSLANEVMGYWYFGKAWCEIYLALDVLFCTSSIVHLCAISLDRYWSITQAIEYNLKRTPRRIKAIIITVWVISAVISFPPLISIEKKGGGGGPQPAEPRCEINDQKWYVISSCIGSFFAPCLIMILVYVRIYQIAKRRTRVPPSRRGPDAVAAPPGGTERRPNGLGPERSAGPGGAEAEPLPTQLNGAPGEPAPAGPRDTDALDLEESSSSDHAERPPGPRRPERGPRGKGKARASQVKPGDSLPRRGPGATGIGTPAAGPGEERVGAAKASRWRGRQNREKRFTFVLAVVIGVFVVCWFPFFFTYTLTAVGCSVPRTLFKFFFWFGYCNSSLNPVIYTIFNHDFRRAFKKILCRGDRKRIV

inhibition [1]: 0%
inhibition [2]: -8%
inhibition [3]: 1.04%
inhibition [4]: -1%
inhibition [5]: -2%
inhibition [6]: 13%
inhibition [7]: 3%
inhibition (Homo sapiens): 2%
inhibition [8]: -8%
inhibition [9]: 7%
inhibition [10]: 7%
inhibition [11]: 43%
inhibition [12]: -2%
inhibition [13]: -5%
inhibition [15]: 21%
inhibition [16]: -9%
inhibition [17]: -1.69%
inhibition [18]: 4%
inhibition [19]: 4%
inhibition [20]: -2%
inhibition [21]: -5%
inhibition [22]: 1.82%
inhibition [23]: 12.4%
inhibition [24]: -6%
inhibition [25]: 5%
inhibition [26]: -6%
inhibition [27]: 9%
inhibition [28]: -2%
inhibition [29]: 14%
inhibition [30]: -2%
inhibition [31]: -1.16%
inhibition [32]: -8%
inhibition [33]: 13%
inhibition [34]: 5%
inhibition [35]: -8%
inhibition [36]: 5%
inhibition [37]: -2%
inhibition [38]: -5%
inhibition [39]: -5%
inhibition [40]: -2%
inhibition [41]: 8.27%
inhibition [42]: 2.66%
inhibition [43]: 5%
inhibition [44]: 15.4%
inhibition [45]: 10%
inhibition [46]: 16%
inhibition [47]: 7%
inhibition [48]: 6%
inhibition [49]: -8%
inhibition [50]: 15%
inhibition [51]: 16%
inhibition [52]: 2.51%
Compound: CC1(C)Cn2nc(-c3ccc(F)cn3)c(-c3ccnc4[nH]ncc34)c2CO1
inhibition [14]: 10%

Source: ChEMBL document CHEMBL5058645, “Data for DCP probe JNJ-6204” (2022)
